Source: patent publication US5744468A (Lin; Tong-Ho, priority 1996, dated 1998)
Read-outs that look alike come from different tables or passages of the source.

What was measured:
[1] = tested on: intraocular pressure (IOP) in rabbits; details: 50 μl
Method: New Zealand albino rabbits of either sex were used in the study. A 20% hypertonic saline solution was infused at the speed of 1 ml per min for 10 minutes through the marginal ear vein with an infusion pump.
Then the IOP of both eyes were measured with a Tono-Pen XL Tonometer (Mentor, Norwell, Mass.) at 30 minute and 10 minute intervals before the experiment. At the time of commencement, as well as at 10, 20, 40, 60, and 80 rain intervals measurements were taken, Then measurements were repeated at every 30 minute intervals.

[2] = tested on: dopamine D3 receptor mRNA; details: daily doses clozapine 30 mg/kg, sulpiride 100 mg/kg; male Wistar rats; long term; cited from earlier work

Structure (SMILES): CCN1CCCC1CNC(=O)c1cc(S(N)(=O)=O)ccc1OC (stereo not drawn) [Sulpiride]
- effect on IOP recovery ([1]; 0.5% drop solution, instilled in eye): didn't show a significant ability in decreasing lOP
- effect on IOP recovery ([1]; 20% drop solution, listed as sulpiride): able to decrease the intraocular pressure (IOP)
- mRNA levels in the dopamine D3 receptor [2]: large increase
